We go through 10 molecules from ChEMBL document CHEMBL1126858, “Synthesis of (R,S)-trans-8-hydroxy-2-[N-n-propyl-N-(3'-iodo-2'-propenyl)amino]tetral in (trans-8-OH-PIPAT): a new 5-HT1A receptor ligand” (J Med Chem, 1993).

The target in data set [1] is T1, 5-hydroxytryptamine receptor 1A (Rattus norvegicus, UniProt P19327).
T1 sequence (P19327 whole entry): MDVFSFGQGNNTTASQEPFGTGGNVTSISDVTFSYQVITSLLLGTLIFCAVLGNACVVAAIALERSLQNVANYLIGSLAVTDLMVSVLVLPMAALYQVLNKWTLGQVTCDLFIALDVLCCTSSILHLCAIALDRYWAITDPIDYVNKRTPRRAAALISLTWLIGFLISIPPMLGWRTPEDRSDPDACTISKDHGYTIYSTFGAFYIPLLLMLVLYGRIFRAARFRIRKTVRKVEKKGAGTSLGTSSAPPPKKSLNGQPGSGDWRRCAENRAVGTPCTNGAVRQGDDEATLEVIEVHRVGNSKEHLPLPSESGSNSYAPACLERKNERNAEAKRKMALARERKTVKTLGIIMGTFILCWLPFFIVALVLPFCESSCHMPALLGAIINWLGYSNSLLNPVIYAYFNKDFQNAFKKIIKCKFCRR
The data set is described as follows: Binding affinity towards 5-hydroxytryptamine 1A receptor by the displacement of [125I]trans-8-OH-PIPAT in membrane homogenates of hippocampal tissue of rat brain. In kind it is tissue-based, Hippocampus.

Data set [2] can be described thus: Hill coefficient of the compound. In kind it is ADME.
Another data set concerns the target D(2) dopamine receptor (Homo sapiens, UniProt P14416). Briefly: Inhibitory activity against [125I]- NCQ298 binding to dopamine receptor D2 in Sf 9 cells. The data set is classed as cell-based.
In the next data set the target is D(3) dopamine receptor (Rattus norvegicus, UniProt P19020). Briefly: Inhibitory activity against [125I]- NCQ298 binding to dopamine receptor D3 in Sf 9 cells. The data set is classed as cell-based.
A further data set is filed under the species Rattus norvegicus. The data set is described as follows: Inhibitory activity against (125I)-(R,S)-trans-8-OH-PIPAT binding to the rat hippocampal homogenate. In kind it is functional, Hippocampus.

SMILES strings stand for the structures. Where only a bound is given, the exact number is not on record here.

Sequence of D(3) dopamine receptor (P19020 whole entry): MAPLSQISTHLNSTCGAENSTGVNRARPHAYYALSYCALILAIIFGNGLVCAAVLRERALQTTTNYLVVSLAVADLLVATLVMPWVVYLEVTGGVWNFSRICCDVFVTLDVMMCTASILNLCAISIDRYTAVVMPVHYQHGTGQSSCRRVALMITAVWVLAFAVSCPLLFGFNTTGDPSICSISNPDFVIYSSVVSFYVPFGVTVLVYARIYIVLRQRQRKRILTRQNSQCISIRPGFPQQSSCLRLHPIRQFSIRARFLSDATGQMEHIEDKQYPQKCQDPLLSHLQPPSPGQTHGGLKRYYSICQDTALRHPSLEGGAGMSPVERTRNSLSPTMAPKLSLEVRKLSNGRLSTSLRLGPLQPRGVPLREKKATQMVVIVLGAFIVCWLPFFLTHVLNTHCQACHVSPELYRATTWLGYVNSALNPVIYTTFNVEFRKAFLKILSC
Sequence of D(2) dopamine receptor (P14416 whole entry): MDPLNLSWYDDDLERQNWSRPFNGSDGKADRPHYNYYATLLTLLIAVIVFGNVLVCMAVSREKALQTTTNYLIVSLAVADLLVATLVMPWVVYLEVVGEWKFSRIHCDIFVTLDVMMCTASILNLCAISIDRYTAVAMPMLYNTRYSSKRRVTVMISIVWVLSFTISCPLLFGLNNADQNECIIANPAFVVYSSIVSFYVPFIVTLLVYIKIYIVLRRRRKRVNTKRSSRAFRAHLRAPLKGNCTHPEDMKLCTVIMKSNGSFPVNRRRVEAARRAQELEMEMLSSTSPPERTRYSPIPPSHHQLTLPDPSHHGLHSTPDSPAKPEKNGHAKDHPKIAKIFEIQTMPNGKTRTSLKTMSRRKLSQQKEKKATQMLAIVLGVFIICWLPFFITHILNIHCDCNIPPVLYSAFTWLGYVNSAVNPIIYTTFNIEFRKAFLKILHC

`COc1cccc(OC)c1OCCNCC1COc2ccccc2O1` (configuration not stated): affinity in data set [1] was put at a Ki of 2.68 nM.
Consider `CCCN(C/C=C/I)C1CCc2ccc(O)cc2C1` (racemic), for which the Hill coefficient (usually a measure of the steepness of the concentration-response curve) in data set [2] worked out at 0.9.
Regarding `CCCN(C/C=C/I)C1CCc2cccc(O)c2C1` (racemic), the Ki (usually the equilibrium dissociation constant of an inhibitor or competing ligand from its target) in data set [1] stood at 0.3 nM; on D(2) dopamine receptor, 1070 nM; at D(3) dopamine receptor it was 125 nM. The same molecule had a Hill coefficient in data set [2] of 0.85.
Take `CCCN(CCC)C1CCc2ccc(O)cc2C1` (racemic): affinity in data set [1] was put at a Ki of 72.7 nM. In addition, the Hill coefficient in data set [2] is reported as 0.82.
Molecule `CCCN(CCC)C1CCc2cccc(O)c2C1` (racemic) [8-OH-DPAT] returned a Hill coefficient in data set [2] of 0.83. Besides, the inhibitory constant (Ki) turned out to be 251 nM on D(3) dopamine receptor and 0.91 nM in the data set filed under Rattus norvegicus.
`CC(C)NCC(O)COc1cccc2ccccc12` (racemic) [PROPRANOLOL] gave a Hill coefficient in data set [2] of 0.99.
For the molecule `NCCc1ccc(O)c(O)c1` [DOPAMINE], in data set [1], the Ki was more than 10000 nM.
For the molecule `O=C(c1ccc(F)cc1)C1CCN(CCn2c(=O)[nH]c3ccccc3c2=O)CC1` [KETANSERIN], the Hill coefficient in data set [2] is 1.04.
In turn, `NCCc1c[nH]c2ccc(O)cc12` [SEROTONIN] gave a Hill coefficient in data set [2] of 1.04.
Molecule `O=C(CCCN1CCC2(CC1)C(=O)NCN2c1ccccc1)c1ccc(F)cc1` [SPIPERONE] had a Ki in data set [1] of 602 nM. This molecule also displayed a Hill coefficient in data set [2] of 0.86.
